We go through 3 compounds from patent publication US12247224B2, “Organoids for drug screening and personalized medicine” (SENTING, LLC, priority 2014, dated 2025).

Type in all cases: cell-based, human
The subject of data set [1] is tumor-organoids UHN6, UHN17, UHN3, UHN5 and UHN15 (primary PDAC). Put plainly: MTT assay of tumor-organoid cultures treated with drugs. The source says:
(§1) (A) Time lapse imaging sequence of UHN6 derived organoids. (B) H&E, phase and immunofluorescence images for KRT19 (bright) and DAPI (dark) of images of tumor-organoids and their matched primary tumors. ((C) H&E images showing maintenance of inter-organoid heterogeneity in histoarchitecture representing variation in primary patient tumor. (D) Normalized MTT assay readings of organoid cultures treated with gemcitabine for 4 days. E) Normalized MTT assay readings of organoid cultures with gemcitabine and epigenetic inhibitor of the H3K27me3 writer EZH2 (UNC1999). (F) Normalized MTT reading of tumor-organoids treated with UNC199 alone. See online Methods for details. (G) Immunostaining for H3K27me3 (bright) in two primary patient tumors (top panel) and corresponding tumor-organoids (bottom panel). (H) Basal 02 consumption as measured by Seahorse™ flux analyzer with and without UNC1999 treatment. For MTT and oxygen consumptions experiments, data represent mean+/−S.D. P value (t-test, two tailed): N.S-, not significant; *−p=0.01-0.05; **−p=0.001-0.01; ***, p=<0.001 (n=3). All scale bars equal to 50 μm.
(§2) For MTT and oxygen consumptions experiments, data represent mean+/− S.D. P value (t-test, two tailed): N.S-, not significant; *−p=0.01-0.05; **−p=0.001-0.01; ***, p=<0.001 (n=3). (B) Immunostaining for H3K27me3 in control (DMSO) or UNC 1999-treated tumor-organoids. Scale bars, 50 μm. (C) Tumor-organoids (top panel) and primary tumors (bottom panel) derived from tumor UHN3, UHN 5 and UHN15, show consistent patient-specific variation in staining for H3K27me3. Scale bars, 50 μm.
For pancreas progenitor organoid culture, T9 cells were resuspended and plated in the PTOM (Pancreatic Progenitor and Tumor Organoid Media) containing DMEM with factors including serum-free supplements, FGFs, and insulin. The cells were plated on a bed of Matrigel as described before 3. At day 8 in 3D culture, replace culture medium with fresh POMM (Pancreatic Organoid Maintenance Media) (PTOM media without FGFs) with 5% Matrigel every 4 days. PODM I (Pancreatic Organoid Differentiation Media) contains DMEM with B27, 2-phospho ascorbic acid, FGF, EGF, TGF beta inhibitors. PODM II contains DMEM with B27, 2-phospho ascorbic acid, FGF, EGF. Fresh tissues of primary tumors from patients were washed twice with DMEM, digested with collagenase (Roche) and resuspended in PTOM. Tumor cells were then seeded in 3D culture chambers as described above. Culture media were replaced every 4 days. For serial passaging of organoids, day 16 organoids were treated with collagenase for 2 hours then further dissociated with trypsin for 10-30 minutes. Cells were collected and re-seeded in 3D culture following protocols as described above. […]
We analyzed five organoid cultures, UHN6, UHN17, UHN3, UHN5 and UHN15. […]

The next data set has as its system progenitor-organoids. Put plainly: Toxicity of epigenetic inhibitors to normal cells in progenitor-organoids. Conditions: compared with JQ1, LAQ824, SGC0946, data not shown. How it is done:
For pancreas progenitor organoid culture, T9 cells were resuspended and plated in the PTOM (Pancreatic Progenitor and Tumor Organoid Media) containing DMEM with factors including serum-free supplements, FGFs, and insulin. The cells were plated on a bed of Matrigel as described before 3. At day 8 in 3D culture, replace culture medium with fresh POMM (Pancreatic Organoid Maintenance Media) (PTOM media without FGFs) with 5% Matrigel every 4 days. PODM I (Pancreatic Organoid Differentiation Media) contains DMEM with B27, 2-phospho ascorbic acid, FGF, EGF, TGF beta inhibitors. PODM II contains DMEM with B27, 2-phospho ascorbic acid, FGF, EGF. Fresh tissues of primary tumors from patients were washed twice with DMEM, digested with collagenase (Roche) and resuspended in PTOM. Tumor cells were then seeded in 3D culture chambers as described above. Culture media were replaced every 4 days. For serial passaging of organoids, day 16 organoids were treated with collagenase for 2 hours then further dissociated with trypsin for 10-30 minutes. Cells were collected and re-seeded in 3D culture following protocols as described above. MCF-10A cells were obtained from ATCC. Gene expression data will be uploaded into NCBI's Gene Expression Omnibus (GEO). […]

Data set [2] relates to H3K27me3 mark in UHN17 organoids. Description: Immunostaining for H3K27me3 in control (DMSO) or UNC1999-treated tumor-organoids. Conditions: at concentrations with significant growth-inhibitory effects.
Text: as §2
Inhibitors of BET (JQ1), histone deacetylase (LAQ824), DOT1L (SGC0946), G9a (A366) and EZH2 (UNC1999) were tested in progenitor-organoids to investigate their toxicities to normal cells. […] A366 and UNC1999 were administered to organoid cultures in combination with the current standard of care, gemcitabine (See FIG. 6 legend and FIG. 12). Organoids were not sensitive to G9a inhibition (FIG. 12A).

Data set [3] has as its system tumor-organoids UHN17, UHN3. Put plainly: Basal O2 consumption measured by Seahorse flux analyzer with and without UNC1999.
Text: as §1
Recent studies reveal a relationship between oxygenation and regulation of H3K27me3 epigenetic mark^28,29. […] We measured basal respiration rates to investigate if tumor-organoids show differences in oxygen consumption. […]

Consider `COc1cc2c(cc1OCCCN1CCCC1)N=C(N)C21CCC1` [A366], for which the “sensitivity of organoids to G9a inhibition (MTT)” value in data set [1] (in combination with gemcitabine, tumor-organoids) is recorded as “not sensitive”. The “toxicity to normal cells” value in the data set on progenitor-organoids is recorded as “least toxic”.
For `CCCc1cc(C)[nH]c(=O)c1CNC(=O)c1cc(-c2ccc(N3CCN(C(C)C)CC3)nc2)cc2c1cnn2C(C)C` [UNC1999], the “suppression of proliferation by EZH2 inhibition alone (MTT)” value in data set [1] (UNC1999 alone, UHN17, UHN3, UHN5) is listed as “effective in suppressing proliferation”. Besides, the “proliferation upon EZH2 inhibition compared to gemcitabine treatment alone (MTT)” value in data set [1] (in combination with gemcitabine, UHN17, UHN3, UHN5, UHN15) is “dose-dependent decreases in proliferation”. Besides, in the data set with progenitor-organoids, the “toxicity to normal cells” value was “least toxic”. The “H3K27me3 mark after treatment” value in data set [2] is on record as “suppressed the H3K27me3 mark”. The “basal oxygen consumption after EZH2 inhibition” value in data set [3] is listed as “suppressed”.
For `Nc1ccn([C@@H]2O[C@H](CO)[C@@H](O)C2(F)F)c(=O)n1` [gemcitabine], in data set [1] (gemcitabine for 4 days, all five organoid cultures UHN6, UHN17, UHN3, UHN5, UHN15), the “growth inhibition in MTT assays” value is 30%.
